Measured values: ChEMBL document CHEMBL3217493, “Approaches to discover non-ATP site kinase inhibitors” (Medchemcomm, 2013)

Target: Mitogen-activated protein kinase 1 (Homo sapiens, UniProt P28482)
Test: Binding affinity to ERK2 (unknown origin)

Mitogen-activated protein kinase 1, sequence (P28482 whole entry): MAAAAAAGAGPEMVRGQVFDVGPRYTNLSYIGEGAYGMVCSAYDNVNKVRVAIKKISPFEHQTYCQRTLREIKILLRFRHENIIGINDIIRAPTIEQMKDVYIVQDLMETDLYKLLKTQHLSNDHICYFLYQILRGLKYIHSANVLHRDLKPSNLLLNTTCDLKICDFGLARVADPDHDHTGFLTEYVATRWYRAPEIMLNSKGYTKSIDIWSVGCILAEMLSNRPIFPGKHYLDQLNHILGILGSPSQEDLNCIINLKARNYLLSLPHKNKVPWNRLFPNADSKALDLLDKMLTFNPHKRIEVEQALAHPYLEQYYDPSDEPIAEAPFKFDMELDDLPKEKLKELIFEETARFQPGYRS

## COc1ccc(/C=C2\SC(=O)N(CCN)C2=O)cc1
  Kd: 5 µM
